Experimental data published in patent US10695311B2, “Solution for ophthalmology” (priority 2016, dated 2020).

Experiments:
[1] = test system: zonula fibers and posterior capsule of donor eyes; test: Experiments on donor eyes; details: the corneas of which were used for cornea transfers, L-lysine in the concentration indicated above (0.5-3.5 wt.-%)
Excerpt: (§1) The surgical result is therefore permanent; further procedures for treatment of possible capsule fibrosis are rarely or never necessary. The solution according to the invention can be used with every phacoemulsification, with or without lens implantation, to clean the posterior capsule. In this regard, the solution according to the invention can be produced from commercially available L-lysine. In particular, the solution can be present as a flushing solution.

[2] = test system: lens capsule; test: Surgical studies within the scope of extracapsular procedures; assay type: in vivo; details: L-lysine concentrations of up to 5%
Excerpt: as §1
When performing the extracapsular operation, it has proven to be practical to apply 1 to 5 ml of the L-lysine according to the invention to the posterior capsule after removal of the cloudy lens core and the subcapsular cortex layer (Cortex lentis), using an anterior-chamber cannula. After a sufficient period of action, the solution is suctioned away and rinsed off. In this regard, the period of action is primarily dependent on the concentration of the solution. For a solution with a concentration of 2 wt.-%, it lies between 30 s and 5 min, preferably at approximately 1 min. The period of action should not amount to more than 5 min, preferably not more than 3 min.

[3] = test system: lens capsule and hemidesmosomes; test: Studies by the inventor with lysine solutions (lens capsule / hemidesmosomes); details: lysine solutions having a lower concentration

## NCCCC[C@H](N)C(=O)O [L-lysine]
[1]
  attack on zonula fibers and posterior capsule: neither the zonula fibers nor the posterior capsule are attacked
[2]
  integrity of lens capsule during and after the procedure: the lens capsule remained intact during and after the procedure
  prevention of capsule fibrosis after the procedures: it was possible to prevent capsule fibrosis after the procedures
[3]
  damage to the lens capsule: damage to the lens capsule does not occur
  digestion of the hemidesmosomes: digestion of the hemidesmosomes still takes place to a sufficient extent
